From patent publication US7566737B2 (Genfit, priority 2002, dated 2009)

Tests used:
[1] = test system: LDL; experiment: Protection against LDL oxidation by copper (conjugated diene formation); type: biochemical; settings: for antioxidant properties on LDL oxidation by copper (in words): FIGS. 1-1 to 1-14
Procedure: LDL oxidation is an important alteration and plays a predominant role in the establishment and development of atherosclerosis (Jurgens G et al., 1987). […] Unless otherwise indicated, the reagents were from Sigma (St Quentin, France). LDL were prepared according to the method described by (Havel R J et al., 1955). The solutions of test compounds were prepared at 10^−2 M concentration in bicarbonate buffer (pH 9) and diluted in PBS to obtain final concentrations ranging from 0.1 to 100 μM for a total ethanol concentration of […]. Prior to oxidation, EDTA was removed from the LDL preparation by dialysis. Oxidation then took place at 30° C. by addition of 100 μl of 16.6 μM CuSO4 solution to 160 μL of LDL (125 μg protein/ml) and 20 μl of a test compound solution. The formation of dienes, the species under observation, was followed by measuring optical density at 234 nm in the samples treated with the compounds but in the presence or absence of copper. Optical density at 234 nm was measured every 10 minutes for 8 hours in a thermostated spectrophotometer (Tecan Ultra 380). The compounds were considered to have antioxidant activity when they induced a longer lag phase and reduced the rate of oxidation and the amount of dienes formed in comparison with the control sample.

[2] = test system: hApoE2 Knock-in transgenic mice; experiment: Effects on triglycerides and cholesterol metabolism in vivo; parameters: species or system mouse; settings: 50 mg/kg/day for 7 or 8 days
Procedure: Treatment of animals: hApoE2 knock-in transgenic mice were kept on a 12-hour light/dark cycle at a constant temperature of 20±3° C. After a 1 week acclimation, mice were separated in groups of 6 animals selected such that the distribution of their body weight and plasmatic lipid levels determined before the experiment were uniform. The test compounds were suspended in carboxymethylcellulose and administered by intragastric gavage at the indicated doses, once a day for 7 or 8 days. Animals had access to food and water ad libitum. At the end of the experiment the animals were weighed and sacrificed under anesthesia. Blood was collected on EDTA. Plasma was prepared by centrifugation at 3000 rpm for 20 minutes. Organs were harvested, frozen in liquid nitrogen and stored at −80° C. for subsequent analysis.
Measurement of serum lipids: Serum lipid concentrations (total cholesterol and triglycerides) were determined by a colorimetric assay (Boehringer, Mannheim, Germany) according to the supplier's instructions.

For `COc1cc(/C=C/C(=O)c2ccccc2O)cc(OC)c1OC(C)(C)C(=O)O` [Compound 5, 1-[2-hydroxyphenyl]-3-[3,5-dimethoxy-4-carboxydimethylmethyloxyphenyl]prop-2-en-1-one], the “antioxidant properties on LDL oxidation by copper (in words)” value [1] was “antioxidant properties”.

`COc1cc(/C=C/C(=O)c2ccc(Cl)cc2O)cc(OC)c1OC(C)(C)C(=O)O` [Compound 6, 1-[2-hydroxy-4-chlorophenyl]-3-[3,5-dimethoxy-4-carboxydimethylmethyloxyphenyl]prop-2-en-1-one] was tested, and the “antioxidant properties on LDL oxidation by copper (in words)” value [1] was “antioxidant properties”.

With `Cc1cc(/C=C/C(=O)c2ccc(Br)cc2O)cc(C)c1OC(C)(C)C(=O)O` [Compound 25, 1-[2-hydroxy-4-bromophenyl]-3-[3,5-dimethyl-4-carboxydimethylmethyloxyphenyl]prop-2-en-1-one] the “lag phase of conjugated diene formation” value ([1]; 10^−4M, FIG. 1-7, copper alone 82 minutes) was 120 min and the “maximum amount of conjugated dienes formed” value ([1]; FIG. 1-8, copper alone 393) was 378 nmol per mg of LDL.

`Cc1cc(-c2cc(=O)c3ccc(Cl)cc3o2)cc(C)c1OC(C)(C)C(=O)O` [Compound 35, 2-(3,5-dimethyl-4-carboxydimethylmethyloxyphenyl)-7-chloro-4H-1-benzopyran-4-one] was tested, and the “lag phase of conjugated diene formation” value ([1]; 10^−4M, FIG. 1-9, copper alone 80 minutes) was 149 min and the “rate of conjugated diene formation” value ([1]; 10^−4M, FIG. 1-10, copper alone 1.9) was 1.5 nmol/min/mg of LDL.

In the case of `CCCCCCOc1ccccc1C(=O)/C=C/c1cc(C)c(OC(C)(C)C(=O)O)c(C)c1` [Compound 82, 1-[2-hexyloxyphenyl]-3-[3,5-dimethyl-4-carboxydimethylmethyloxyphenyl]prop-2-en-1-one], the plasma cholesterol ([2]; FIGS. 4-13, 4-15, 4-17, 4-19) is reported as “decrease” and the plasma triglycerides ([2]; FIGS. 4-14, 4-16, 4-18, 4-20) is reported as “decrease”.
